Measured values as given in US20120035180A1, “PHARMACEUTICAL COMPOSITION FOR TREATING CANCER COMPRISING CHLORIN E6-FOLIC ACID CONJUGATE COMPOUND AND CHITOSAN” (priority 2009, published 2012).

Tests used:
Hela cells [1] = experiment: Accumulation in Hela cells; format: cell-based; conditions: 2×10^−7 M/l, 37° C.
Procedure: The cellular accumulation and the targeted delivery of the photoactive compounds were investigated using Hela cells, which is one of the numerous tumor cell types that overexpress folate receptors.
Cells were cultivated for 3 days in medium 199, and transferred to Hank's solution/medium 199 (9/1). After 3 hours, the cell were collected by trypsin treatment from the substrate and placed in Hank's solution (10^5 κπ/ml). To cell suspensions, chlorin e6 conjugates were added at a concentration of 2×10^−7 M/l, and incubated at 37° C. After 1, 5, 10, 15, and 24 hours, the samples were centrifuged, the pellet was washed with the cooled Hank's solution, and transferred to Hank's solution at a concentration being equal to that in the initial suspension.

HeLa tumor cells = experiment: Cytotoxicity (antiproliferative assay) in the absence of light exposure; format: cell-based; conditions: 24 hr incubation
Procedure: Cytotoxicity was analyzed, considering the intensity of proliferative processes in cells, photosensitizer concentration, and dose of optical power. For each point, 3 flasks with cell monolayer were used.
The monolayer culture of HeLa tumor cells was chosen and used as the cell.
The culture of HeLa tumor cells was grown in nutrient medium 199 or in nutrient medium containing hemohydrolyzate supplemented with 10% fetal bovine serum and […] of kanamycin.
On day 4 after the cell culture was inoculated in the flasks (100,000 cells per 2.0 ml of nutrient medium), the photosensitizer was added at a concentration of 1, 2.5, 5.0, 10.0, 20.0, or 30.0 mg/ml.
Flasks with light-protective cover (dark cytotoxicity) were incubated at 37.5° C. for 1 hour. The cells were washed with Hank's solution 4 times. 2.0 ml of fresh nutrient medium were added, and the cells were irradiated at the temperature of melting ice for 5, 10, 15 or 20 mins by the light flux of a “METALAZ” laser medical device (wavelength: 627.8 nm, 578.2 or 510.6 nm) or “LD 680-2000” (wavelength: 670-690 nm), depending on the wavelength of maximum spectral absorption of the studied photosensitizer, at a dose of 40 J/cm^2. After 20-24 hours, the number of tumor cell was counted in Goriaev's chamber.

HeLa cell culture = experiment: Phototoxicity (photodynamic activity), 3.5 h incubation, 3.3 joule/cm^2; format: cell-based; set-up: number of HELA cells (relative to the control): unit not given here; conditions: incubation 3.5 hours
Procedure: To examine the photodynamic effects of a photosensitizer on a HeLa cell culture, the photosensitizer solution was added to the nutrient media at a final concentration of 0.1, 0.5, 1.0, 5.0 or 10 mcg/ml on day 3 after transplanting the cell culture into flasks. The flasks were wrapped with a light protecting cover, and incubated at 37° C. for 3.5 hours. Then, the cells were washed with Hank's solution, and exposed on ice by a laser medical device “LD 680-2000” (wavelength: 670-690 nm) at a dose of 3.3 joule/cm^2. After 20-24 hours, the available cell monolayer was dispersed using a 0.02%-Versene solution, and the number of tumor cells was calculated in Goriaev's chamber. For each point, 3 flasks were used.

Hela cells [2] = experiment: Phototoxicity, 24 h incubation, 1.5-15 joule/cm^2; format: cell-based; conditions: 670-690 nm
Procedure: In other experiment, the cells were incubated with photosensitizers at 37° C. for 24 hours, and irradiated by exposed on ice by a laser medical device “LD 680-2000” (wavelength of 670-690 nm) in a dose of 1.5-15 joule/cm^2.

[3] = test system: transporter of restored vectors (TRV); conditions: cited from earlier work

Structure (SMILES)	concentration in Hela cells (Hela cells [1]; incubation time 1 hours)	concentration in Hela cells (Hela cells [1]; incubation time 5 hours)	concentration in Hela cells (Hela cells [1]; incubation time 10 hours)	concentration in Hela cells (Hela cells [1]; incubation time 15 hours)	concentration in Hela cells (Hela cells [1]; incubation time 24 hours)	cell survival rates (HeLa tumor cells)	number of HELA cells (relative to the control) (HeLa cell culture; photoexposure 3.3 joule/cm^2, conc. 0.1 mcg/ml)	number of HELA cells (relative to the control) (HeLa cell culture; photoexposure 3.3 joule/cm^2, conc. 0.5 mcg/ml)	number of HELA cells (relative to the control) (HeLa cell culture; photoexposure 3.3 joule/cm^2, conc. 1.0 mcg/ml)	number of HELA cells (relative to the control) (HeLa cell culture; photoexposure 3.3 joule/cm^2, conc. 5.0 mcg/ml)	number of HELA cells (relative to the control) (HeLa cell culture; photoexposure 3.3 joule/cm^2, conc. 10.0 mcg/ml)	phototoxicity / photosensitivity in survival test (Hela cells [2])	affinity of the carrier (TRV) [3]
C=Cc1c(C)c2cc3nc(c(CC(=O)O)c4[nH]c(cc5nc(cc1[nH]2)C(C)=C5CC)c(C)c4C(=O)O)C(CCC(=O)O)C3C (stereo not drawn) [chlorin e6, 13-carboxy-17-[2-carboxyethyl]-15-carboxymethyl-17,18-trans-dihydro-3-vinyl-8-ethyl-2,7,12,18-tetramethylporphyrin]	0.86 relative units/10^4cl.	1.45 relative units/10^4cl.	1.72 relative units/10^4cl.	0.81 relative units/10^4cl.	0.40 relative units/10^4cl.	about 90%	87.1	83.6	64.7	19	3.8	little phototoxicity	–
Nc1nc(O)c2nc(CNc3ccc(C(=O)N[C@@H](CCC(=O)O)C(=O)O)cc3)cnc2n1 [folic acid, N-[4(2-Amino-4-hydroxypteridin-6-ylmethylamino)benzoyl]-L(+)-glutamic acid]	–	–	–	–	–	–	–	–	–	–	–	–	about 200 μM
